Reference: patent publication US8258145B2, “Method of treating brain cancer” (Myrexis, Inc., priority 2005, dated 2012)

Tested on: T-47D
Assay: Caspase cascade activation (caspase activity ratio and potency), fluorogenic N-(Ac-DEVD)-N'-ethoxycarbonyl-R110 substrate
Format: cell-based, Human
Protocol: Human breast cancer cell lines T-47D and DLD-1 were grown according to media component mixtures designated by American Type Culture Collection+10% FCS (Invitrogen Corporation), in a 5% CO2−95% humidity incubator at 37° C. T-47D and DLD-1 cells were maintained at a cell density between 50 and 80% confluency at a cell density of 0.1 to 0.6×10^6 cells/mL. Cells were harvested at 600×g and resuspended at 0.65×10^6 cells/mL into appropriate media+10% FCS. An aliquot of 22.5 μL of cells was added to a well of a 384-well microtiter plate containing 2.5 μL of a 10% DMSO in RPMI-1640 media solution containing 0.16 to 100 μM of (2-chloro-quinazolin-4-yl)-(4-methoxy-phenyl)-methyl-amine or other test compound (0.016 to 10 μM final). An aliquot of 22.5 μL of cells was added to a well of a 384-well microtiter plate containing 2.5 μL of a 10% DMSO in RPMI-1640 media solution without test compound as the control sample. […] […] The samples were mixed by agitation and incubated at room temperature. Using a fluorescent plate reader (Model SPECTRAfluor Plus, Tecan), an initial reading (T=0) was made approximately 1-2 min after addition of the substrate solution, employing excitation at 485 nm and emission at 530 nm, to determine the background fluorescence of the control sample. After the 3 h incubation, the samples were read for fluorescence as above (T=3 h).
The Relative Fluorescence Unit values (RFU) were used to calculate the sample readings as follows: RFU(T=3h)−Control RFU(T=0)=Net RFU(T=3h)
The activity of caspase cascade activation was determined by the ratio of the net RFU value for (2-chloro-quinazolin-4-yl)-(4-methoxy-phenyl)-methyl-amine or other test compounds to that of control samples. The EC50 (nM) was determined by a sigmoidal dose-response calculation (Prism 3.0, GraphPad Software Inc.).

Row | Structure (SMILES) | Caspase activity Ratio (net RFU of test compound to control) (T-47D (24 hr)) | Caspase activity Ratio (net RFU of test compound to control) (T-47D (48 hr))
1 | COc1cccc(N(C)c2nc(Cl)nc3ccccc23)c1OC [Example 24, (2-Chloro-quinazolin-4-yl)-(2,3-dimethoxy-phenyl)-methyl-amine] | 4.5 | 
2 | COc1ccc(N(C)c2nc(C)nc3ccccc23)cc1F [Example 26, (3-Fluoro-4-methoxy-phenyl)-(2-methyl-quinazolin-4-yl)-methyl-amine] | 7.6 | 
3 | CCc1ccc(N(C)c2nc(C)nc3ccccc23)cc1 [Example 28, (4-Ethyl-phenyl)-(2-methyl-quinazolin-4-yl)-methyl-amine] | 6.3 | 
4 | Cc1nc(N(C)c2ccc(OC(F)F)cc2)c2ccccc2n1 [Example 25, (4-Difluoromethoxy-phenyl)-(2-methyl-quinazolin-4-yl)-methyl-amine] | 6.7 | 
5 | COc1ccc(N(C)c2nc(Cl)nc3c(C)cccc23)cc1 [Example 15, (2-Chloro-8-methyl-quinazolin-4-yl)-(4-methoxy-phenyl)-methyl-amine] |  | 7.1
6 | COc1ccc(N(C)c2nc(C)nc3ccccc23)c(F)c1 [Example 34, (2-Fluoro-4-methoxy-phenyl)-(2-methyl-quinazolin-4-yl)-methyl-amine] | 6.9 | 
7 | CN(c1ccc(Cl)cc1)c1nc(Cl)nc2ccccc12 [Example 3, (2-Chloro-quinazolin-4-yl)-(4-chloro-phenyl)-methyl-amine] | 8.1 | 
8 | CCOc1ccc(N(C)c2nc(Cl)nc3ccccc23)cc1 [Example 32, (2-Chloro-quinazolin-4-yl)-(4-ethoxy-phenyl)-methylamine] |  | 9.0
9 | COc1ccc(N(C)c2nc(C)nc3cccc(OC)c23)cc1 [Example 31, (5-Methoxy-2-methyl-quinazolin-4-yl)-(4-methoxy-phenyl)-methyl-amine] | 8.3 | 
10 | COc1ccc(N(C)c2nc(CCl)nc3ccccc23)cc1 [Example 22, (2-Chloromethyl-quinazolin-4-yl)-(4-methoxy-phenyl)-methyl-amine] | 6.2 | 5.7
11 | COc1ccc(N(C)c2nc(Cl)nc3cccc(Cl)c23)cc1 [Example 30, (2,5-Dichloro-quinazolin-4-yl)-(4-methoxy-phenyl)-methyl-amine] | 10.6 | 
12 | CCOc1ccc(N(C)c2nc(C)nc3ccccc23)cc1 [Example 36, (4-Ethoxy-phenyl)-(2-methyl-quinazolin-4-yl)-methyl-amine] | 5.2 | 
13 | CN(c1ccc([N+](=O)[O-])cc1)c1nc(Cl)nc2ccccc12 [Example 54, (2-Chloro-quinazolin-4-yl)-(4-nitro-phenyl)-methyl-amine] | 7.1 | 
14 | COc1cccc(N(C)c2nc(Cl)nc3ccccc23)c1 [Example 10, (2-Chloro-quinazolin-4-yl)-(3-methoxy-phenyl)-methyl-amine] |  | 14.7
15 | COc1ccc(N(C)c2nc(NO)nc3ccccc23)cc1 [Example 5, N^2-Hydroxyl-N^4-(4-methoxy-phenyl)-N^4-methyl-quinazoline-2,4-diamine] |  | 12.8
16 | CN(c1ccccc1)c1nc(Cl)nc2ccccc12 [Example 55, (2-Chloro-quinazolin-4-yl)-phenyl-methyl-amine] | 6.7 | 
17 | CN(C)c1ccc(N(C)c2nc(Cl)nc3ccccc23)cc1 [Example 45, (2-Chloro-quinazolin-4-yl)-(4-dimethylaminophenyl)-methylamine] | 4.2 | 
18 | Cc1ccc(N(C)c2nc(Cl)nc3ccccc23)cc1 [Example 2, (2-Chloro-quinazolin-4-yl)-(4-methyl-phenyl)-methyl-amine] | 6.7 | 
